Read-outs that look alike come from different tables or passages of the source.
How the values were obtained:
[1] = test system: Candida albicans ATCC 10231; assay: Inhibition rate after 20 minutes of action, Appendix C of GB 15979-2002; format: cell-based
Source text: “Inhibition rate” is the inhibition rate of bacteriostatic agents against Escherichia coli, Staphylococcus aureus, Candida albicans, or other microorganisms obtained by referring to the test methods and judgment criteria in Appendix C of GB 15979-2002 Hygienic Standard for Disposable Sanitary Products.
“Bacteriostatic effect” refers to the inhibition of bacteria, fungi, or other microorganisms by bacteriostatic agents.
The percentage concentration of each ingredient therein was the weight percentage concentration % (w/w), and the pH value of each group was 3.8.
The percentage concentration of each ingredient therein was the weight percentage concentration % (w/w), and the pH value of each group was 4.0.
According to the method described in Appendix C of GB 15979-2002 Hygienic Standard for Disposable Sanitary Products, aqueous solutions containing different ingredients were studied for their bacteriostatic effects of 20 minutes of action against Candida albicans ATCC 10231, the percentage concentration of each ingredient therein was the weight percentage concentration % (w/w), and the pH value of each group was 3.9. […]

lactobacilli = settings: cited from earlier work

SMILES	Inhibition rate ([1]; Table 12, single ingredient solutions, pH 3.8, 20 minutes of action)	influence on the bacteriostatic effect of the solution containing 0.14% malic acid, 1.46% adipic acid, 0.20% sodium benzoate, 1.67% propionic acid, and 0.40% phenethyl alcohol against Candida albicans ([1]; text on Table 26, pH 4.0, Group 1 compared to Group 2)	growth of lactobacilli (lactobacilli; concentration 0.40% (w/v))	growth of lactobacilli (lactobacilli; concentration 0.50% (w/v))	growth of lactobacilli (lactobacilli; concentration 0.70% (w/v))
O=C([O-])c1ccccc1.[Na+] [0.25% sodium benzoate, sodium benzoate]	3.73%				
N[C@@H](CCC(=O)O)C(=O)O [0.55% glutamic acid, glutamic acid]		did not affect the bacteriostatic effect			
OCCc1ccccc1 [phenethyl alcohol, phenethyl alcohol (2-phenylethanol)]			not significantly inhibited	inhibited	
CCC(=O)[O-].[Na+] [sodium propionate]			not significantly inhibited	not significantly inhibited	inhibited
